Laboratory results reported in article PMC4664966, “Discovery and characterization of novel inhibitors of the sodium-coupled citrate transporter (NaCT or SLC13A5)” (Scientific Reports, 2015).

Legend:
[1] = target: Vascular endothelial growth factor receptor 2 (VEGFR-2) (Homo sapiens, UniProt P35968); assay: Selectivity data (Table S1); assay type: binding
[2] = target: Phosphodiesterase 5A1 (PDE5A1) (Homo sapiens, UniProt O76074); assay: Selectivity data (Table S1); assay type: biochemical
[3] = target: Adenosine receptor A1 (ADORA1) (Homo sapiens, UniProt P30542); assay: Selectivity data (Table S1); assay type: binding
[4] = target: CYP3A4 (Homo sapiens, UniProt P08684); assay: Selectivity data (Table S1); assay type: in vitro ADME; settings: 3 µM
[5] = target: Cytochrome P450 3A4 (CYP3A4) (Homo sapiens, UniProt P08684); assay: Selectivity data (Table S1); assay type: in vitro ADME
[6] = target: Diacylglycerol acyltransferase 2 (DGAT2) (Homo sapiens, UniProt Q96PD7); assay: Selectivity data (Table S1); assay type: biochemical
[7] = target: Opioid receptor, kappa 1 (OPRK1) (Homo sapiens, UniProt P41145); assay: Selectivity data (Table S1); assay type: binding
[8] = tested on: mice fed a HFD; assay: Chronic treatment of mice fed a HFD (OGTT, hepatic lipids)
Protocol: In studies requiring chronic treatment with compound, mice were purchased at 18 weeks of age following 13 weeks of HFD administration (D12459i; 60% of the calories from fat). Mice were maintained on HFD for the duration of the study in a 12:12-h light/dark cycle. […] To perform an oral glucose tolerance test (day 20 of dosing), mice were fasted at 6:00 AM to 12:00 PM and administered P.O. 1.5 g/kg at 12:00 PM. Glucose concentrations were determined using an AlphaTrak (Abbott Laboratories) at 0, 15, 30, 60, and 90 minutes. […] Hepatic lipids were measured by LC-MS/MS as previously described[42].

[9] = target: Cannabinoid receptor 1 (CB1) (Homo sapiens, UniProt P21554); assay: Selectivity data (Table S1); assay type: binding
[10] = target: T1, NaDC1 (SLC13A2) (Homo sapiens, UniProt Q13183); assay: Inhibition of citrate or succinate uptake in HEKNaDC1 cells; assay type: cell-based
T1 construct: host or cells: HEK-293, transient (Fugene HD)
T1 sequence (Q13183 1-592): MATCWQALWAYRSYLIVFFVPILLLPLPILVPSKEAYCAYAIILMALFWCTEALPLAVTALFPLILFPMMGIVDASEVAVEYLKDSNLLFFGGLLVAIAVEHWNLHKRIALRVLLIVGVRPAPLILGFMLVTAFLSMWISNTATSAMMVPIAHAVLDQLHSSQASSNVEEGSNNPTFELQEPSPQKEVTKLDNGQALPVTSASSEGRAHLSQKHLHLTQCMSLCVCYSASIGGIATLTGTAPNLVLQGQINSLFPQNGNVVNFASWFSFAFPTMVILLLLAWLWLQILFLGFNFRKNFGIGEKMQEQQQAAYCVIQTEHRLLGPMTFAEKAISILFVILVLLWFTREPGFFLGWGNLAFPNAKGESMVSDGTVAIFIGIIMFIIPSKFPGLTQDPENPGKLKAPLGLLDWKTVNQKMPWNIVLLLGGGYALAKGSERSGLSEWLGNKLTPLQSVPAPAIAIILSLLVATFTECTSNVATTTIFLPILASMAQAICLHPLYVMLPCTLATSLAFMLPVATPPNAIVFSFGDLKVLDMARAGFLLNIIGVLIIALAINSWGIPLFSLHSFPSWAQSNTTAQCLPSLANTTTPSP
From the text: Protocols to generate the stable cell line overexpressing NaCT or cell transfection with SLC13A2 or SLC13A3 can be found in the supporting information. HEK-293 cells stably transfected with the human sodium Citrate transporter SLC13A5 or transiently transfected with the human SLC13A2 or SLC13A3 transporter were removed from the flasks with dissociation buffer and re-suspended in an equal volume of growth media (DMEM, High Glucose supplemented with 10% heat inactivated fetal bovine serum and 500 μg/ml Geneticin). For the transient transfections, Geneticin was eliminated from the media. Cell suspensions were centrifuged at 1,000 rpm for approximately 5 minutes. Resulting cell pellets were re-suspended in growth media and placed in a 37 °C water bath for approximately 10 minutes prior to a final spin at 1,000 rpm. Following this spin the resulting cell pellets were re-suspended in assay buffer, 142 mM NaCl (or 142 mM choline chloride), 5 mM KCl, 1.2 mM MgSO4, 1.5 mM CaCl, 5 mM glucose and 25 mM HEPES pH 7.4. Cell suspensions were counted and the concentration adjusted as needed with assay buffer to 2e[6] viable cells /mL. 20 μL of cell suspension were added to 384-well cyotstar-T plates followed by the addition of 5 μL of 10× concentration of compound. Cells and compound were incubated at 37 °C for approximately 30 minutes prior to the addition of 25 μL of 300 μM citric acid (16 μM radiolabeled [^14C]-citric acid and 284 μM cold citric acid) to make a 150 μM final concentration of citric acid or 21 μM [^14C]-succinic acid. After substrate addition, the uptake of radioactivity was monitored on Perkin Elmer Microbeta plate reader. Data from reads between 45–90 minutes was used to assess the ability of test compounds to inhibit the uptake of citric or succinic acid. […]
were plated, and incubated for 48 hours. Following the incubation, NaDC1 and NaDC3 assays were executed identical to the procedure for NaCT. […]
The solution was heated to reflux until the total volume was reduced to ~25 mL. […]

[11] = tested on: human hepatocytes; assay: Incorporation of [14C]-citrate into triglycerides by human hepatocytes; assay type: cell-based; settings: radiolabeled citrate for 24 hours
Protocol: Incorporation of [^14C]-citrate into triglycerides by human hepatocytes was measured using the same procedure as above except cells were incubated with the radioactive citrate for 24 hours. Subsequently, the media was aspirated and 100 μL of isopropyl alcohol:THF (9:1) was added. The plate was shaken for 15 minutes, centrifuged at 3000 revolutions per minute for 5 minutes, and 50 μL of supernatant from each well was applied per TLC lane (Whatman LK6D Silica Gel Plates). Radiolabeled lipids were resolved using a 2-solvent system: Solvent 1 contained a 100:100:100:40:36 mixture of ethyl acetate:isopropyl alcohol:CHCl3:MeOH:0.25% KCl and Solvent 2 a 70:27:3 hexane:diethyl ether:acetic acid mixture. The TLC plate was dried under nitrogen for 30 minutes and [^14C]-standards added to a vacant lane. Bands were visualized and quantitated using a Molecular Dynamics’ Storm 860 PhosphorImager system following 18–36 hours exposure to a Phosphorimager screen.

[12] = target: Histamine receptor 2 (H2) (Homo sapiens, UniProt P25021); assay: Selectivity data (Table S1); assay type: binding
[13] = HFD mice, 250 mg/kg BID for 21 days

Chain of Opioid receptor, kappa 1 (OPRK1) (P41145 whole entry): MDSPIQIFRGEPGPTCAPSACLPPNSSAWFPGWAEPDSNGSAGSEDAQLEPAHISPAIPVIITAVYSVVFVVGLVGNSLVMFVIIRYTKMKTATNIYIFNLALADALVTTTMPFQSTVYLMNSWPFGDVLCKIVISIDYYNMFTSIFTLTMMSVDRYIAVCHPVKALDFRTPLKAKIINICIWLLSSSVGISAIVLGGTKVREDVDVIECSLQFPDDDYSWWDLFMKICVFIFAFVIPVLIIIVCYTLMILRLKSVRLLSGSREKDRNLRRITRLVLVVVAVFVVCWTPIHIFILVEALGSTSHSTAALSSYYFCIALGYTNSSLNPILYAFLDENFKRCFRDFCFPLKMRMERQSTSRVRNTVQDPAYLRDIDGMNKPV
Chain of Vascular endothelial growth factor receptor 2 (VEGFR-2) (P35968 20-1356): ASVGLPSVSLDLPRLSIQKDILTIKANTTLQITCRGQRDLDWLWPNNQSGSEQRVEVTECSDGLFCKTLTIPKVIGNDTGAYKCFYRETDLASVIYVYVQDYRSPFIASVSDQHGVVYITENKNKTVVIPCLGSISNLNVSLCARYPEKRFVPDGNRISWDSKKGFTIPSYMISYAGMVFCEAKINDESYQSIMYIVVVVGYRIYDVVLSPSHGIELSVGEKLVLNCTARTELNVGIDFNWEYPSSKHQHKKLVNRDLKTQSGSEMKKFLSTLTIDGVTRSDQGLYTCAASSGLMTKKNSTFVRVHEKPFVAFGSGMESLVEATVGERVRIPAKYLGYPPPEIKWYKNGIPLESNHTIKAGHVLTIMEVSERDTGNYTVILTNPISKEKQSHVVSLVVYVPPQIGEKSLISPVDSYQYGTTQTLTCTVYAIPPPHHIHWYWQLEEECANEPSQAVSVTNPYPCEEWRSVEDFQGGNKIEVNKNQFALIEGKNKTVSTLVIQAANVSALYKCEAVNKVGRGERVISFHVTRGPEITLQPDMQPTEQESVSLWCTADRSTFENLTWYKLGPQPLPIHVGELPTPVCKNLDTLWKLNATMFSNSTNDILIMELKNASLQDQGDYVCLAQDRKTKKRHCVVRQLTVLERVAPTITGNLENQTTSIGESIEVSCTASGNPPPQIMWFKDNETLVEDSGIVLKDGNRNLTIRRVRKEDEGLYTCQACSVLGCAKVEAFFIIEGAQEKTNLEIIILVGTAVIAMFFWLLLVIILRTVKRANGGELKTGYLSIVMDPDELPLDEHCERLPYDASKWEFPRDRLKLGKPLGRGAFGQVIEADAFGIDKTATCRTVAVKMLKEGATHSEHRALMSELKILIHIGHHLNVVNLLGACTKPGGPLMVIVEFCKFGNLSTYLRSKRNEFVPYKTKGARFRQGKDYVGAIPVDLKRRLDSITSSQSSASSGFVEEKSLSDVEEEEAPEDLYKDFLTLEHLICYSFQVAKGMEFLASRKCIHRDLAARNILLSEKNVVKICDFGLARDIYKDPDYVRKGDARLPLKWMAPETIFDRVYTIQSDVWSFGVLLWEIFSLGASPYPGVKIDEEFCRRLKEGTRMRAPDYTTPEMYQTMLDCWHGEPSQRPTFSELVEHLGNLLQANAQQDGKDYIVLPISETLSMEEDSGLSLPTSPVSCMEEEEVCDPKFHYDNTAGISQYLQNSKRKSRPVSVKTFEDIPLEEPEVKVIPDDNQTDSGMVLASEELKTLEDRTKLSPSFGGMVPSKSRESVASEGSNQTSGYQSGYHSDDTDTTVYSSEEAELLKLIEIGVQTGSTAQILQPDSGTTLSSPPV
Chain of Cannabinoid receptor 1 (CB1) (P21554 whole entry): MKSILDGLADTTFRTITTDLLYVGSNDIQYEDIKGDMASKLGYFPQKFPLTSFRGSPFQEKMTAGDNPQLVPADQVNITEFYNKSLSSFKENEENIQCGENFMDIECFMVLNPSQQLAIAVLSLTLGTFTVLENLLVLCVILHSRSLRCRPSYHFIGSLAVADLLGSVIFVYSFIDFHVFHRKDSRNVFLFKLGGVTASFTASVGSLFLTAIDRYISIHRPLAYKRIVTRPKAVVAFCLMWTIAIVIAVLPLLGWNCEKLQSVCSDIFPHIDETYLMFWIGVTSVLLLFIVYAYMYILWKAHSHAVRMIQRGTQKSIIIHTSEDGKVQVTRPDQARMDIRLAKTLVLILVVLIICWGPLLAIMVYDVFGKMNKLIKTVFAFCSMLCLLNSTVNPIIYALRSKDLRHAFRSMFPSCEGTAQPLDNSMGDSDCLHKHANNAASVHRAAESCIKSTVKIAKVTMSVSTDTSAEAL
Chain of Histamine receptor 2 (H2) (P25021 whole entry): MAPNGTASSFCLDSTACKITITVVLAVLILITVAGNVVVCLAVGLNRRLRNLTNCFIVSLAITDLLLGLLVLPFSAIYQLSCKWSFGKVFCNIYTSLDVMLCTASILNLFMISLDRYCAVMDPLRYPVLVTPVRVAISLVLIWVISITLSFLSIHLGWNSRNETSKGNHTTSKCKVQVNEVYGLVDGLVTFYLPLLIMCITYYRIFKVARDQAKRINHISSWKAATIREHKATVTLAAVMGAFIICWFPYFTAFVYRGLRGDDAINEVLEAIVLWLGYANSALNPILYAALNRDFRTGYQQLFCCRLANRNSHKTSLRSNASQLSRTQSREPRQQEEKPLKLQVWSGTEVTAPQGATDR
Chain of Adenosine receptor A1 (ADORA1) (P30542 whole entry): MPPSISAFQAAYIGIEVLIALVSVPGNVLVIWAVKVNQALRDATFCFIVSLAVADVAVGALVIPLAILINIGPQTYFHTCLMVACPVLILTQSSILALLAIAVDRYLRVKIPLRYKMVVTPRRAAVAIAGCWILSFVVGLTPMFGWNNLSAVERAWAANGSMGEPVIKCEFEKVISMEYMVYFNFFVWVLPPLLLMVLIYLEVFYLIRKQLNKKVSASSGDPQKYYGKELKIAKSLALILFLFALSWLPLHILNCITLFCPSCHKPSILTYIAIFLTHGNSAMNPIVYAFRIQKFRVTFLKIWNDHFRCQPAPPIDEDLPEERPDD
Chain of Cytochrome P450 3A4 (CYP3A4) (P08684 whole entry): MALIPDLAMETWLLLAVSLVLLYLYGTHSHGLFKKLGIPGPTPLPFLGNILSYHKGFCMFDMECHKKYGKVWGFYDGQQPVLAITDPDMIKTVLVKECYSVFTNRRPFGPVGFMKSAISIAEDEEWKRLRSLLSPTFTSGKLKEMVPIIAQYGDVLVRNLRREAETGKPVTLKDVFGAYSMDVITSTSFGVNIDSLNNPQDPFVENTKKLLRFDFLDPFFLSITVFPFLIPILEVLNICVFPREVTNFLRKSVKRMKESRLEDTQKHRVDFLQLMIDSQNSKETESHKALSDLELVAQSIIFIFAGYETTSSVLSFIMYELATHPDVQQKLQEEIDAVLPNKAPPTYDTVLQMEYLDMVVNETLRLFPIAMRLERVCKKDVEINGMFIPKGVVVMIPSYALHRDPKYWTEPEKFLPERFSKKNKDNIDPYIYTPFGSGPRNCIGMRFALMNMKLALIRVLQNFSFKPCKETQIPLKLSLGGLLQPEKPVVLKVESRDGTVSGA
Chain of CYP3A4 (P08684 whole entry): as above
Chain of Diacylglycerol acyltransferase 2 (DGAT2) (Q96PD7 whole entry, species assumed): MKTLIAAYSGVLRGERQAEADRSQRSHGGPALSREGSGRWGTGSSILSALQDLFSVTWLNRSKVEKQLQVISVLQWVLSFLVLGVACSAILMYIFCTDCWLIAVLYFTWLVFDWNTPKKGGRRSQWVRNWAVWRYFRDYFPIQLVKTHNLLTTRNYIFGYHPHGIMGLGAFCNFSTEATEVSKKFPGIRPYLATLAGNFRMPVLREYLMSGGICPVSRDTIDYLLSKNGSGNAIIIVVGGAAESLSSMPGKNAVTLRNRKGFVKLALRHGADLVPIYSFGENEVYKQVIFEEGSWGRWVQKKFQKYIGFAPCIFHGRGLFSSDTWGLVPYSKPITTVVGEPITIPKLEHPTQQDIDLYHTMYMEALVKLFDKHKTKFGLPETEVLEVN

In the case of CC(C)(C)c1ccc(CC[C@@](O)(CC(=O)O)C(=O)O)cc1 [Compound 2], the inhibition at 100 µM [1] is reported as less than 10%, the IC50 [2] is reported as greater than 30 µM and the inhibition at 100 µM [3] is reported as less than 10%. For the same compound, the inhibition at 3 µM [4] was 12%, the “interaction/inhibition of CYP3A4” value [5] was “no significant interaction/inhibition” and the IC50 [6] was greater than 50 µM. The inhibition at 100 µM [7] was 13%, the “plasma insulin concentrations area under the curve during OGTT” value ([8]; HFD mice, 250 mg/kg BID) was “no differences” and the “hepatic TAG and DAG” value [8, 13] was “trend for lower”. For the same compound, the hepatic acylcarnitine [8, 13] was “higher levels”, the β-hydroxybutyrate concentrations [8, 13] was 0.49 ± 0.06 mmol/L and the “glucose intolerance during OGTT” value ([8]; HFD mice, 250 mg/kg BID, day 20) was “completely reversed”. For the same compound, the “phenotype analogous to epileptic encephalopathy” value ([8]; during the in vivo experiments) was “no phenotype analogous to epileptic encephalopathy was observed”, the inhibition at 100 µM [9] was less than 10% and the “inhibition of citrate or succinate uptake, NaDC1” value ([10]; HEK-293-derived system overexpressing NaDC1) was “No measurable inhibition”. For the same compound, the IC50 ([10]; compound 4: mean of 2 replicates) was greater than 100 µM, the “label incorporation in TAG” value [11] was “decreased dose-dependently” and the inhibition at 100 µM [12] was less than 10%.
